Data reported in the supplement of paper PMC6045584.
± gives the standard deviation of the averaged measurements.

Legend:
TEMOZOLOMIDE = compound: Cn1nnc2c(C(N)=O)ncn2c1=O [TEMOZOLOMIDE]; test: surviving fraction relative to DMSO-only wells; higher = less growth inhibition; settings: exposure time: 5 days
Procedure, shortened: (§1)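 Log-phase tumour cell lines were seeded at 250–500 cells per well in 384-well plates. After 24 hours they were exposed continuously for five days to inhibitors at 0.5, 1, 5, 10, 50, 100, 500 and 1000 nM. Viability was read by CellTiter-Glo luminescence after 10 minutes at room temperature, and surviving fraction is luminescence normalised to the median of DMSO-only wells. Each line was screened three times and kept only if replicate Pearson r >0.7 and median Z' >0.3.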

SORAFENIB = compound: CNC(=O)c1cc(Oc2ccc(NC(=O)Nc3ccc(Cl)c(C(F)(F)F)c3)cc2)ccn1 [SORAFENIB]; test: as above; settings: exposure time: 5 days
Procedure, shortened: as §1

Test System	surviving fraction (TEMOZOLOMIDE; 0.5 nM)	surviving fraction (TEMOZOLOMIDE; 1 nM)	surviving fraction (TEMOZOLOMIDE; 5 nM)	surviving fraction (TEMOZOLOMIDE; 10 nM)	surviving fraction (TEMOZOLOMIDE; 50 nM)	surviving fraction (TEMOZOLOMIDE; 100 nM)	surviving fraction (TEMOZOLOMIDE; 500 nM)	surviving fraction (TEMOZOLOMIDE; 1000 nM)	surviving fraction (SORAFENIB; 0.5 nM)	surviving fraction (SORAFENIB; 5 nM)	surviving fraction (SORAFENIB; 10 nM)	surviving fraction (SORAFENIB; 500 nM)	surviving fraction (SORAFENIB; 1000 nM)	surviving fraction (SORAFENIB; 50 nM)	surviving fraction (SORAFENIB; 100 nM)	surviving fraction (SORAFENIB; 1 nM)
SNU475 LIVER	1.004 ± 0.0081	1.01 ± 0.025	1.01 ± 0.051	1.04 ± 0.036	1.01 ± 0.034	1.06 ± 0.047	1.05 ± 0.053	1.03 ± 0.022	1.08 ± 0.036	1.04 ± 0.03	1.05 ± 0.032	1.17 ± 0.031	1.07 ± 0.042			
HUO3N1 BONE	0.981 ± 0.025	0.988 ± 0.045	1.029 ± 0.0051	1.04 ± 0.042	1.01 ± 0.039	1.06 ± 0.032	0.9827 ± 0.0083	1.02 ± 0.03	1 ± 0.053		1 ± 0.036	0.818 ± 0.029	0.82 ± 0.017	1.004 ± 0.01	0.941 ± 0.04	
HCC1806 BREAST	1 ± 0.043	1.083 ± 0.0076	1.19 ± 0.052	1.07 ± 0.081	1.12 ± 0.086	1.09 ± 0.034	1.05 ± 0.16	1.12 ± 0.11	0.985 ± 0.032	1.03 ± 0.059	0.771 ± 0.66	1 ± 0.11	0.888 ± 0.081	1.14 ± 0.099	1.05 ± 0.14	0.78 ± 0.45
COLO320DM LARGE INTESTINE	1.21 ± 0.13	1.1 ± 0.036	1.13 ± 0.055	1.17 ± 0.12	1.1 ± 0.035	1.142 ± 0.011	1.15 ± 0.014	1.06 ± 0.047	1.13 ± 0.042	1.15 ± 0.029	1.07 ± 0.075	1.18 ± 0.2	0.968 ± 0.074	1.21 ± 0.14	1.11 ± 0.013	1.06 ± 0.04
ZR751 BREAST	0.95 ± 0.12	0.953 ± 0.032	0.981 ± 0.034	0.964 ± 0.09	0.987 ± 0.15	1.04 ± 0.11	0.918 ± 0.11	1.05 ± 0.06	1.08 ± 0.086	0.99 ± 0.056	1.02 ± 0.18		1.06 ± 0.072	1.28 ± 0.042	1.31 ± 0.19	1.04 ± 0.02
LM7 BONE	0.916 ± 0.081	0.989 ± 0.086	1.04 ± 0.085	1.05 ± 0.049	1.05 ± 0.077	1.09 ± 0.022	0.968 ± 0.065	0.967 ± 0.04	0.938 ± 0.057		1.01 ± 0.066		1.05 ± 0.033	1.11 ± 0.14	1.04 ± 0.054	0.97 ± 0.048
SKBR3 BREAST	1.1 ± 0.052	1.11 ± 0.058	1.06 ± 0.082	1.06 ± 0.069	0.983 ± 0.061	1.07 ± 0.13	1.13 ± 0.04	1.07 ± 0.055	1.12 ± 0.15	0.978 ± 0.087	0.951 ± 0.16	1.08 ± 0.23	1.1 ± 0.053	0.96 ± 0.16	0.95 ± 0.1	1.07 ± 0.22
SCC36 HEADNECK	1.04 ± 0.065	1.08 ± 0.088	1.19 ± 0.11	1.14 ± 0.069	1.07 ± 0.056	1.08 ± 0.14	1.11 ± 0.1	1.05 ± 0.078		1.15 ± 0.11	1.18 ± 0.018	1.2 ± 0.049	1.18 ± 0.065	1.18 ± 0.16	1.17 ± 0.056	1.02 ± 0.064
CAL120 BREAST	0.948 ± 0.059	0.963 ± 0.033	0.99 ± 0.048	0.96 ± 0.075	0.976 ± 0.075	0.988 ± 0.016	0.988 ± 0.053	0.989 ± 0.025	0.959 ± 0.026	0.931 ± 0.025		0.973 ± 0.023	0.942 ± 0.032	1.02 ± 0.014	1.01 ± 0.038	0.9315 ± 0.0074
KPD BONE	0.925 ± 0.022	0.955 ± 0.091	1.11 ± 0.079	1.01 ± 0.024	1.06 ± 0.088	1.074 ± 0.0076	0.983 ± 0.1	0.977 ± 0.043	0.922 ± 0.019	1.03 ± 0.032				0.989 ± 0.075		
H23 LUNG	0.987 ± 0.04	1.01 ± 0.031	1.01 ± 0.053	1.06 ± 0.044	0.997 ± 0.025	1.01 ± 0.022	0.966 ± 0.066	1.02 ± 0.051	1.01 ± 0.03	1.06 ± 0.061	1.06 ± 0.033	1.38 ± 0.11	1.27 ± 0.073	1.32 ± 0.095	1.33 ± 0.031	
SCC90 HEADNECK	0.973 ± 0.039	1.16 ± 0.11	1.05 ± 0.053	1.02 ± 0.062	1.08 ± 0.073	1.06 ± 0.2	1.1 ± 0.088	1.01 ± 0.057	1.16 ± 0.083	1.37 ± 0.12	1.3 ± 0.097	1.01 ± 0.083	1.12 ± 0.069		0.797 ± 0.076	1.23 ± 0.13
SUM44 BREAST	1.16 ± 0.26	1.19 ± 0.22	1.24 ± 0.23	1.33 ± 0.5	1.19 ± 0.21	1.32 ± 0.33	1.3 ± 0.28	1.3 ± 0.26	1.03 ± 0.035	1.03 ± 0.051	1.04 ± 0.053		0.974 ± 0.026	1.12 ± 0.035	1.11 ± 0.044	0.99 ± 0.041
NOS1 BONE	0.881 ± 0.071	1.01 ± 0.077	1.16 ± 0.11	1.16 ± 0.049	1.25 ± 0.099	1.15 ± 0.067	1.01 ± 0.076	1.06 ± 0.14	1.04 ± 0.11	1.12 ± 0.17	0.997 ± 0.058	0.684 ± 0.0075	0.613 ± 0.062	0.995 ± 0.053	0.874 ± 0.056	
NCIH441 LUNG	1.07 ± 0.065	1.14 ± 0.06	1.21 ± 0.059	1.06 ± 0.066	1.04 ± 0.081	1.13 ± 0.074	1.11 ± 0.086	1.19 ± 0.058	1.12 ± 0.014	1.12 ± 0.12	0.967 ± 0.042	0.927 ± 0.04	0.834 ± 0.016	0.992 ± 0.023	0.99 ± 0.12	1.07 ± 0.028
SUM149 BREAST	1.06 ± 0.11	1.1 ± 0.067	1.1 ± 0.029	1.1 ± 0.12	1.01 ± 0.056	1.16 ± 0.12	1.1 ± 0.096	1.03 ± 0.022	1.18 ± 0.028				1.278 ± 0.0084		1.17 ± 0.051	1.09 ± 0.048
MFM223 BREAST	1.46 ± 0.65	1.38 ± 0.44	1.5 ± 0.54	1.49 ± 0.63	1.38 ± 0.52	1.19 ± 0.07	1.38 ± 0.48	1.17 ± 0.08	1.18 ± 0.021	1.23 ± 0.08	1.15 ± 0.047	1.06 ± 0.13	0.742 ± 0.08	1.23 ± 0.13	1.14 ± 0.081	1.16 ± 0.048
